In patent US20140094482A1, “BENZAZOCINE-RING COMPOUND INHIBITION OF TAU HYPERPHOSPHORYLATION” (priority 2012, published 2014):
pIC50: −log10 of the molar value. Values joined by “and” are separate entries in the source; they are usually repeats but may differ in a detail not shown here. Equal entries are not always repeated. “Also recorded” adds a separate entry of the source. Where two headings read alike, the source gives them in different places.

Key:
[1] = target: FLNA pentapeptide of SEQ ID NO: 1 (Bn-VAKGL) (Homo sapiens, UniProt P21333); test: FITC-NLX-based FLNA screening assay (inhibition of FITC-naloxone binding to Bn-VAKGL); conditions: for inhibition at 0.01 µM: read-out: Percent inhibition of FITC-NLX binding, 0.01 μM compound; for inhibition at 0.1 µM: read-out: Percent inhibition of FITC-NLX binding, 0.1 μM compound
[2] = target: kappa-opioid receptor (Homo sapiens, UniProt P41145); conditions: cited from earlier work
Chain of kappa-opioid receptor (P41145 whole entry): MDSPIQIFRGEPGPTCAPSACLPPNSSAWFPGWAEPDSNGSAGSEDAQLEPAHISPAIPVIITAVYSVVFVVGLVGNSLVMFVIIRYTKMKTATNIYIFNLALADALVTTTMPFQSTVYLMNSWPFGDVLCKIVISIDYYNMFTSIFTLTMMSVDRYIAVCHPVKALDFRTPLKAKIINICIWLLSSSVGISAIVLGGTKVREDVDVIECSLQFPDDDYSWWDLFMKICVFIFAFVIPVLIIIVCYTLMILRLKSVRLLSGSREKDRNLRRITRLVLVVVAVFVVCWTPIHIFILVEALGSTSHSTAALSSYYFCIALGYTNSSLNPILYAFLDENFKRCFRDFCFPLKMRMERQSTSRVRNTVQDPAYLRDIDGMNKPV

[3] = tested on: ERK2; test: Aβ42-induced ERK2 activation (pERK2) in synaptosomes; format: biochemical, rat; conditions: 0.1 and 1 nM, simultaneous treatment
Protocol: FIG. 3, in two panels as FIG. 3A and FIG. 3B, illustrates that FLNA-binding compounds reduce Aβ-induced α7nAChR-mediated ERK2 signaling. In the same treated synaptosomes used in FIG. 2, levels of phosphorylated (activated) ERK2 (pERK2) were measured in immunoprecipitates of ERK2. Aβ42 strongly activated extracellular signal-regulated kinase 2 [ERK2; also known as mitogen-activated protein kinase 1 (MAPK1)], and all compounds studied reduced this activation with 10-minutes of pretreatment. […] Immunoprecipitates were determined by Western blotting (FIG. 3A) and quantified by densitometry (FIG. 3B). n=3. Data are means±SEM. […] vs. Aβ42 alone. Hatching is as in FIG. 2.
(§1) Synaptosomes were exposed to 100 nM Aβ42 for 30 minutes, and with […] compounds added either simultaneously or 10 minutes earlier. Controls were a vehicle (no Aβ42) and an Aβ42 alone condition.
To assess Aβ42 signaling via α7nAChR after compound administration, levels of phosphorylated ERK2 were measured in the same synaptosome preparations treated with Aβ42 and the above compounds using Western blots (FIG. 3A). Phosphorylation of ERK2 indicates its activation, which leads to tau hyperphosphorylation. Compared to the control condition, Aβ42 strongly activates ERK2. This activation is suppressed by all six compounds at 0.1 and 1 nM with 10 minute pretreatment, and also by Compound B0055 and (+)NLX with simultaneous treatment (FIG. 3B).

[4] = target: T1, α7nAChR-FLNA complex (Rattus norvegicus, UniProt A0A8I5ZV49); test: Aβ42-induced α7nAChR-FLNA association in frontal cortical synaptosomes (anti-FLNA immunoprecipitation, Western blot); format: biochemical; conditions: compound simultaneous with 100 nM Aβ42; vs Aβ42 alone
T1 construct: from tissue; host or cells: rat frontal cortex synaptosomes
Protocol: FIG. 2, in two panels as FIG. 2A and FIG. 2B, illustrates high-affinity FLNA-binding compounds reduce α7nAChR-FLNA association as shown by Western blots. Frontal cortical synaptosomes from 2-month-old rats (n=4) were treated with 0.1 or 1 nM concentrations of potential FLNA-binding compounds [A0040, A0068, B0055, C0137M, C0138M and (+)-naloxone (+NLX)] either simultaneously (Sim) with or 10 minutes prior (10′ pr) to Aβ42 and were analyzed for their α7nAChR-FLNA complex contents. The α7nAChR-FLNA complexes in the solubilized synaptosomes were immunoprecipitated with immobilized anti-FLNA and the α7nAChR and FLNA levels in the anti-FLNA immunoprecipitates determined by Western blotting FIG. 2A and quantified by densitometry (FIG. 2B). n=3. Data are means±SEM. […] vs. Aβ42 alone. Data for 0.1 nM simultaneous admixture are shown in diagonal hatching; data from 1 nM simultaneous admixture are shown in cross-hatching; data from 0.1 nM 10 minutes prior to Aβ42 are shown in horizontal hatching; and data from 1 nM admixture 10 minutes prior Aβ42 are shown with vertical hatching. The letter designation “M” that accompanies many of the “C-series” compounds is omitted from FIG. 2, the remaining figures and most discussions of the figures and compounds hereinafter for ease in expression. […]

[5] = target: delta-opioid receptor (Homo sapiens, UniProt P41143); conditions: cited from earlier work
Chain of delta-opioid receptor (P41143 whole entry): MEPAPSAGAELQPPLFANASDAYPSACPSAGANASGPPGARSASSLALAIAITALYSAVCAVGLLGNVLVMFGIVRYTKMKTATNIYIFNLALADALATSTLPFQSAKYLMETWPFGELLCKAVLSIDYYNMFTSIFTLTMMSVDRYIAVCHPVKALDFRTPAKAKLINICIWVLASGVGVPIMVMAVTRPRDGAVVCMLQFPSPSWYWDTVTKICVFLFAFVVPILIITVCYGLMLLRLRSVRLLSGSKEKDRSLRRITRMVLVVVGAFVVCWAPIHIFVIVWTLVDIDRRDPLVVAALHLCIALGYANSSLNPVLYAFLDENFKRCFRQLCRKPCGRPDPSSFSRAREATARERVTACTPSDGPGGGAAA

[6] = target: T2, FLNA (Homo sapiens, UniProt P21333); test: Inhibition of FITC-NLX binding to FLNA in membranes of A7 cells; conditions: for pIC50: FITC-NLX in place of [3H]NLX
T2 construct: rather than the full protein from a cell membrane preparation; host or cells: A7 cells (membranes)
T2 sequence (P21333 whole entry): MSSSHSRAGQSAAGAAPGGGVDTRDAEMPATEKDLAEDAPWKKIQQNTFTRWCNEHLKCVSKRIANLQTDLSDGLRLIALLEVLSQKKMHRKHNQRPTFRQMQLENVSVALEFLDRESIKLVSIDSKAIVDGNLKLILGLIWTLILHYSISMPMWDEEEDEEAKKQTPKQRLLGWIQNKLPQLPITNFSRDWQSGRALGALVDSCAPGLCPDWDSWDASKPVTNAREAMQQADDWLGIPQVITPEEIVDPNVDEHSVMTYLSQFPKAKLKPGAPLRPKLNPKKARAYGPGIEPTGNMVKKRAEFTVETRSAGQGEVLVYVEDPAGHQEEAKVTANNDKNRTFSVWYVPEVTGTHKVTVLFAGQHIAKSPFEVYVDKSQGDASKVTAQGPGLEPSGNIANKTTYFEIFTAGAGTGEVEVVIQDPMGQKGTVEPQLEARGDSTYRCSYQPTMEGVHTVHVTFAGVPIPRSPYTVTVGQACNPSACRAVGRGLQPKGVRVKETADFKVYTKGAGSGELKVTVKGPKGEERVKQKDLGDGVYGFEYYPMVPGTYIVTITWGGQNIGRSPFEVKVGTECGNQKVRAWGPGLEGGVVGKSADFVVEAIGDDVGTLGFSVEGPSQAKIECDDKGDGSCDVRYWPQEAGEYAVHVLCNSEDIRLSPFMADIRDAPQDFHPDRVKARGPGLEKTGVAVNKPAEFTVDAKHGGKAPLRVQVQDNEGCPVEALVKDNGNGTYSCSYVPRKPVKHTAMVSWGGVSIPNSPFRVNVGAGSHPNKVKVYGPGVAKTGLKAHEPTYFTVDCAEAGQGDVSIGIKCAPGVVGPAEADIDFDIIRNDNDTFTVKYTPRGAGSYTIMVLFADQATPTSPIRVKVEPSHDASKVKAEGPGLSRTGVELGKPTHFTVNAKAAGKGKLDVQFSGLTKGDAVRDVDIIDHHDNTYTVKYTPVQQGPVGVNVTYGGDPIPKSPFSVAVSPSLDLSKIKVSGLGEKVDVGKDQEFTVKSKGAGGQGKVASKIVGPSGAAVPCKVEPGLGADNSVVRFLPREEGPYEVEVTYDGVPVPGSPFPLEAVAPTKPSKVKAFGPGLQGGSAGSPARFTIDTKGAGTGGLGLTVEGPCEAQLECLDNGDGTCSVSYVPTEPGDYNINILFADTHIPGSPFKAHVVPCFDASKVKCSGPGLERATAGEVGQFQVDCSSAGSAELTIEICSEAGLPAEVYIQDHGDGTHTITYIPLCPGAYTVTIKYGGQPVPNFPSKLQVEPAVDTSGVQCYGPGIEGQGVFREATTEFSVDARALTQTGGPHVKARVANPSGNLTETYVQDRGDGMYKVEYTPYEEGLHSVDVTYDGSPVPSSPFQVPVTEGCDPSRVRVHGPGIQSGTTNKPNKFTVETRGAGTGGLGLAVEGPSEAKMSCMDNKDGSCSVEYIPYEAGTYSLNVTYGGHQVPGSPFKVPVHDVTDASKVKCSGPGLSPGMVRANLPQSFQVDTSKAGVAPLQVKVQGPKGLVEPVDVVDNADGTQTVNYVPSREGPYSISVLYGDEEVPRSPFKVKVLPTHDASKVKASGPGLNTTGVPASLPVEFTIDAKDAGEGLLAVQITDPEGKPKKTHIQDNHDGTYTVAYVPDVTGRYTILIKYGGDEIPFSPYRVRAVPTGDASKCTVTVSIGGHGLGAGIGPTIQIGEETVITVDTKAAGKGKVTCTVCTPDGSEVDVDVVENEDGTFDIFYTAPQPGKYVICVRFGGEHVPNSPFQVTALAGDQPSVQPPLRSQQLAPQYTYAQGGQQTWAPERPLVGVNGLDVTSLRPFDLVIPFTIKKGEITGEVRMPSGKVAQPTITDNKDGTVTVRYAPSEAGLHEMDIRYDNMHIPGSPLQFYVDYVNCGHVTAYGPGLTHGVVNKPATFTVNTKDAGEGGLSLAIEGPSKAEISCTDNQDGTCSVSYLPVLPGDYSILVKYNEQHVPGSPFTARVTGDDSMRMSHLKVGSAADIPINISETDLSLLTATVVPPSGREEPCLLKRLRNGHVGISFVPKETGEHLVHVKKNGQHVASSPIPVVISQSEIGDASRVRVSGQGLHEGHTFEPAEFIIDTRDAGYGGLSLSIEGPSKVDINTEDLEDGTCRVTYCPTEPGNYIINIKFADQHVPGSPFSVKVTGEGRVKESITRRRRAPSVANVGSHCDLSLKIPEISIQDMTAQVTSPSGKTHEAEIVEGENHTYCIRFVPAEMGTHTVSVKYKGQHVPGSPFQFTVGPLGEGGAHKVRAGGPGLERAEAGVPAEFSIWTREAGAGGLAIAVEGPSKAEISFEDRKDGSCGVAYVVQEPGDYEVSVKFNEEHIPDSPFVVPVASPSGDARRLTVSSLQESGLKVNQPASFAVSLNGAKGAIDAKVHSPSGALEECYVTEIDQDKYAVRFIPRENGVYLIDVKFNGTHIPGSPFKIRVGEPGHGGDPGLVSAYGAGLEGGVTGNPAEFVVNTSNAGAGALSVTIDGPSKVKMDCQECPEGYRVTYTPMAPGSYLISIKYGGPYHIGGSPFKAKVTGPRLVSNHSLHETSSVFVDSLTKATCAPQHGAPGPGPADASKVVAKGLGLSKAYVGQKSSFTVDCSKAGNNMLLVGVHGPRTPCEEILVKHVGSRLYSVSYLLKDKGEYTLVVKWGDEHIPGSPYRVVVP
From the text: 3(2):e1554 (2008), FIG. 3. FIG. 1B is a similar plot obtained from the use of FITC-labeled NLX (FITC-NLX) in place of the radio-labeled material.

[7] = target: T2, FLNA; conditions: [3H]NLX binding, A7 cell membranes, Wang et al. 2008/2009, cited from earlier work
[8] = target: T2, FLNA; test: Inhibition of [3H]NLX binding to membranes from FLNA-expressing A7 cells; conditions: for pIC50: [3H]NLX binding, A7 cell membranes, Example 3, six studies, two-site fit
[9] = target: mu opioid receptor (MOR) (Homo sapiens, UniProt P35372); conditions: cited from earlier work
Chain of mu opioid receptor (MOR) (P35372 whole entry, species assumed): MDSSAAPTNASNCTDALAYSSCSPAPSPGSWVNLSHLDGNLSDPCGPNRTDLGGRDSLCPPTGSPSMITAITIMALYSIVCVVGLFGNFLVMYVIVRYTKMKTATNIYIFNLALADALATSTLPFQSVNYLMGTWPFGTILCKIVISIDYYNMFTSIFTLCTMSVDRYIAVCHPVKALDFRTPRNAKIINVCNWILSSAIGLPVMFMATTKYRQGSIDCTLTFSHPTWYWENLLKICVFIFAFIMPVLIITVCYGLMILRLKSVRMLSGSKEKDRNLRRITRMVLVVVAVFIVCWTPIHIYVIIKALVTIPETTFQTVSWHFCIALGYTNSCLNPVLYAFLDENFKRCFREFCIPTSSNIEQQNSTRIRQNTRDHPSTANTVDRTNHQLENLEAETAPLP

[10] = tested on: tau protein; test: Aβ42-induced tau phosphorylation at S202, T231 and T181 in synaptosomes; format: biochemical, rat
Protocol: FIG. 4, in four panels as FIG. 4A, FIG. 4B, FIG. 4C and FIG. 4D, illustrate that FLNA-binding compounds reduce tau phosphorylation at all three hyperphosphorylation sites. […] The three phosphoepitopes of tau were detected in immunoprecipitates using specific antibodies in Western blots. […] Immunoprecipitates were determined by Western blotting (FIG. 4A) and quantified by densitometry (FIG. 4B, FIG. 4C and FIG. 4D). Data are means±SEM. […] vs. Aβ42 alone. Hatching is as in FIG. 2.
as §1
Next assessed was whether the FLNA-binding compounds also decrease hyperphosphorylation of tau, a downstream effect of Aβ42 binding to α7nAChR and ERK2 activation. The three primary phosphorylation sites on tau protein were examined for their phosphorylation levels compared to total tau protein content using Western blots (FIG. 4A). Tau, phosphorylated at these three sites, is a constituent of NFTs.

[11] = read-out: Percent Inhibition, 1 μM compound (n = 5)
[12] = read-out: Percent inhibition of FITC-NLX binding, 1 μM compound, 10 nM FITC-NLX
[13] = read-out: inhibition of binding of FITC-labeled NLX, 1 μM compound, 10 nM FITC-NLX, n=5, FIG. 11
[14] = read-out: inhibition of binding of FITC-labeled NLX

Oc1ccc2c3c1O[C@H]1[C@H](O)CC[C@@]4(O)[C@@H](C2)N(CC2CC2)CC[C@]314 [6-β-Naltrexol]
Percent Inhibition ([1]; 1 µM): 50.5%
Percent Inhibition ([1]; 10 µM): 64.8%

Oc1ccc2c(c1)[C@@]13CCCC[C@@]1(O)[C@@H](C2)N(CC1CCC1)CC3 [Butorphanol]
RECEPTOR KAPPA: antagonism/agonism and relative potency [2]: +++

COc1c2c(cc3c1C(CC(=O)Cc1ccccc1F)[N+](C)(C)CC3)OCO2 (stereo not drawn) [Compound B0055]
Aβ42-induced ERK2 activation (pERK2) [3]: suppressed; also recorded: reduced the activation at both concentrations
α7nAChR-FLNA association [4]: markedly reduced

CN1CC[C@]23CCCC[C@H]2[C@H]1Cc1ccc(O)cc13 [Levorphanol]
inhibition at 1 µM ([1]; read-out: Percent Inhibition): 46.8%
inhibition at 10 µM ([1]; read-out: Percent Inhibition): 69.4%

Oc1ccc2c3c1O[C@H]1[C@@H](O)CC[C@@]4(O)[C@@H](C2)N(CC2CCC2)CC[C@]314 [Nalbuphine]
binding to the FLNA pentapeptide of SEQ ID NO: 1 (in words) [1]: bind well
inhibition at 1 µM ([1]; read-out: Percent Inhibition): 65.4%
inhibition at 10 µM ([1]; read-out: Percent Inhibition): 76.2%

C=C1CC[C@@]2(O)[C@H]3Cc4ccc(O)c5c4[C@@]2(CCN3CC2CC2)[C@H]1O5 [Nalmefene]
inhibition at 1 µM ([1]; read-out: Percent Inhibition): 44.5%
inhibition at 10 µM ([1]; read-out: Percent Inhibition): 66.9%

C=CCN1CC[C@]23c4c5ccc(O)c4O[C@H]2[C@@H](O)C=C[C@H]3[C@H]1C5 [Nalorphine]
binding to the FLNA pentapeptide of SEQ ID NO: 1 (in words) [1]: bind well
inhibition at 1 µM ([1]; read-out: Percent Inhibition): 58.7%
inhibition at 10 µM ([1]; read-out: Percent Inhibition): 60.2%
RECEPTOR KAPPA: antagonism/agonism and relative potency [2]: +

C=CCN1CC[C@]23c4c5ccc(O)c4O[C@H]2/C(=N/NC(=O)c2ccccc2)CC[C@@]3(O)[C@H]1C5 [Naloxone Benzoylhydrazone]
RECEPTOR DELTA: antagonism/agonism and relative potency [5]: −
RECEPTOR KAPPA: antagonism/agonism and relative potency [2]: −

C=CCN1CC[C@]23c4c5ccc(O)c4O[C@H]2C(=O)CC[C@@]3(O)[C@H]1C5 [Naloxone]
binding to the FLNA pentapeptide of SEQ ID NO: 1 (in words) [1]: bind well
Percent inhibition of FITC-NLX binding ([1]; 0.01 μM compound, 10 nM FITC-NLX, listed as (−)NLX): 41.9% and 34.3% and 41.4% and 42.50%
Percent inhibition of FITC-NLX binding ([1]; 0.1 μM compound, 10 nM FITC-NLX, listed as (−)NLX): 48.6% and 38.5% and 47.2% and 54.20%
Percent inhibition of FITC-NLX binding ([1]; 1 μM compound, 10 nM FITC-NLX, listed as (−)NLX): 51.5% and 45.8% and 50.2% and 56.20%
inhibition at 1 µM [1, 11]: 71.6%
inhibition at 0.01 µM ([1]; 10 nM FITC-NLX): 43%
inhibition at 0.1 µM ([1]; 10 nM FITC-NLX): 50.3%
inhibition at 1 µM [1, 12]: 53.9%
inhibition at 1 µM [1, 13]: ~75%

O=C1CC[C@@]2(O)[C@H]3Cc4ccc(O)c5c4[C@@]2(CCN3CC2CC2)[C@H]1O5 [Naltrexone]
pIC50 ([6]; read-out: IC50-H (high)): 11.79
pIC50 ([6]; read-out: IC50-L (low)): 7.73
affinity difference between the high- and low-affinity binding sites ([6]; FITC-NLX label): ~12.000 fold
pIC50 ([7]; read-out: IC50-H (high affinity site)): 11.40
pIC50 ([7]; read-out: IC50-L (lower affinity site)): 9.08
binding to the FLNA pentapeptide of SEQ ID NO: 1 (in words) [1]: bind well
Percent inhibition of FITC-NLX binding ([1]; 0.01 μM compound, 10 nM FITC-NLX, listed as NTX): 37.9% and 34.8% and 38.5%
Percent inhibition of FITC-NLX binding ([1]; 0.1 μM compound, 10 nM FITC-NLX, listed as NTX): 46.5% and 45.2% and 43.3%
Percent inhibition of FITC-NLX binding ([1]; 1 μM compound, 10 nM FITC-NLX, listed as NTX): 55.4% and 51.6% and 48.0%
inhibition at 1 µM [1, 11]: 76.4%
inhibition at 0.01 µM ([1]; 10 nM FITC-NLX): 40.2%
inhibition at 0.1 µM ([1]; 10 nM FITC-NLX): 47.4%
inhibition at 1 µM [1, 12]: 49.1%
inhibition at 1 µM [1, 13]: ~75%
pIC50 ([8]; IC50-L (low)): 9.08
pIC50 ([8]; read-out: IC50-H (high)): 11.40
affinity difference between the high- and low-affinity binding sites ([8]; [3H]NLX label): about 200 fold

Oc1ccc2c3c1O[C@H]1c4[nH]c5ccccc5c4C[C@@]4(O)[C@@H](C2)N(CC2CC2)CC[C@]314 [Naltrindole]
RECEPTOR MU: antagonism/agonism and relative potency [9]: −
inhibition at 1 µM ([1]; read-out: Percent Inhibition): 41%
inhibition at 10 µM ([1]; read-out: Percent Inhibition): 65%
RECEPTOR KAPPA: antagonism/agonism and relative potency [2]: −

CN1CC[C@]23c4c5ccc(O)c4O[C@H]2[C@@H](O)C=C[C@H]3[C@H]1C5 [morphine]
binding to the FLNA pentapeptide of SEQ ID NO: 1 (in words) [1]: do not bind well
inhibition at 10 µM [1, 14]: 25 to 50%

Oc1ccc2c3c1O[C@H]1c4[nH]c5c(c4C[C@@]4(O)C(C2)N(CC2CC2)CC[C@]314)C[C@@]1(O)[C@H]2Cc3ccc(O)c4c3[C@@]1(CCN2CC1CC1)[C@H]5O4 [nor-Binaltrophimine]
RECEPTOR DELTA: antagonism/agonism and relative potency [5]: −

COc1ccc2c3c1O[C@H]1C(=O)CC[C@@]4(O)[C@@H](C2)N(C)CC[C@]314 [oxycodone]
binding to the FLNA pentapeptide of SEQ ID NO: 1 (in words) [1]: do not bind well
inhibition at 10 µM [1, 14]: 25 to 50%

COC(=O)/C=C/C(=O)N[C@@H]1CC[C@@]2(O)[C@H]3Cc4ccc(O)c5c4[C@@]2(CCN3CC2CC2)[C@H]1O5 [β-Funaltrexamine]
Percent Inhibition ([1]; 1 µM): 49.8%
Percent Inhibition ([1]; 10 µM): 69.4%

(+)-naloxone [(+)NLX]
Aβ42-induced hyperphosphorylation of tau at all three sites ([10]; FIG. 4D, timing not specified): particularly decreased
Aβ42-induced tau phosphorylation at S202, T231 and T181 ([10]; simultaneous administration, both concentrations): reduced tau phosphorylation
Aβ42-induced ERK2 activation (pERK2) [3]: suppressed
Aβ42-induced ERK2 activation (pERK2) ([3]; listed as (+)-naloxone): reduced the activation at both concentrations
α7nAChR-FLNA association [4]: markedly reduced
